The target of series [1] is T1, Progesterone Receptor (PR) (Homo sapiens, UniProt P06401).
T1 construct: endogenous in cells; host or cells: T47D human breast mammary carcinoma cells
T1 sequence (P06401 1-933): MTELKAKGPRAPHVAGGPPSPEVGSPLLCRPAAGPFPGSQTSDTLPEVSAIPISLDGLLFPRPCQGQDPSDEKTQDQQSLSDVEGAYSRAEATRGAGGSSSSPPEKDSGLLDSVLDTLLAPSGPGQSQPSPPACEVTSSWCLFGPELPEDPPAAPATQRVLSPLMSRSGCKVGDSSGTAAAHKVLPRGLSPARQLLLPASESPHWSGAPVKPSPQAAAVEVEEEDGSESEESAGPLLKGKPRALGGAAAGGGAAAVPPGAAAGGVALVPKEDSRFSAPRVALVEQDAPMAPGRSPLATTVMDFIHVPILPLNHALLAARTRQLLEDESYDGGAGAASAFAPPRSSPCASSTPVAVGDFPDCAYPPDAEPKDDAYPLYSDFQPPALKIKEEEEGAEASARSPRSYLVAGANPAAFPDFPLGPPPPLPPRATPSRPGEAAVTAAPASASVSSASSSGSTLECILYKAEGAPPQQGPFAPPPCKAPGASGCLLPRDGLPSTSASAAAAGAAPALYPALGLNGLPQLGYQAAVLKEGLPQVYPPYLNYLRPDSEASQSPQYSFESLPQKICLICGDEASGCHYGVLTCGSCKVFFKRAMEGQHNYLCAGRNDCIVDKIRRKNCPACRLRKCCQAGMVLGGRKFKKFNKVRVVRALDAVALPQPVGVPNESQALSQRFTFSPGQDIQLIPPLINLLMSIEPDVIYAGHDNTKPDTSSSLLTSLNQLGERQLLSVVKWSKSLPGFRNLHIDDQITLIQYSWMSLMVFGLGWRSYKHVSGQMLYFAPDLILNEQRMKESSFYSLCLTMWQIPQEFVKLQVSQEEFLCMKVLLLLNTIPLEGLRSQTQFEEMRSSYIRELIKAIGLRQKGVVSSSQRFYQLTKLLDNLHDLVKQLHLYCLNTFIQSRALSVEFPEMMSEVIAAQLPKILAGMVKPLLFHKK
Description: In vitro functional assay for progesterone receptor (PR) antagonism: inhibition of progesterone-induced alkaline phosphatase expression in T47D cells (Screen 1.0). Type of series: cell-based. As to conditions: antagonist format (5 nM P4), alkaline phosphatase inhibition in T47D human mammary carcinoma cells. The text has this: 1.0 In Vitro Functional Assay for Progesterone Receptor (PR) Antagonism
The assay for PR antagonism takes advantage of the extensively reported modulation of alkaline phosphatase (AP) expression in human breast T47D mammary carcinoma cells {Beck, et al., (1993). The progesterone antagonist RU486 acquires agonist activity upon stimulation of cAMP signalling pathways. Proc. Natl. Acad. Sci., USA, 90, 4441-4445; Fensome, et al. (2002). New progesterone receptor antagonists: 3,3-disubstituted-5-aryloxindoles. Bioorg. Med. Chem. Lett., 12, 3487-3490; Zhang et al., (2002a). 6-Aryl-1,4-dihydro-benzo d 1,3 oxazin-2-ones: a novel class of potent, selective, and orally active nonsteroidal progesterone receptor antagonists. J. Med. Chem., 45, 4379-4382; Zhang et al., (2003). Novel 6-aryl-1,4-dihydrobenzo[d]oxazine-2-thiones as potent, selective, and orally active nonsteroidal progesterone receptor agonists. Bioorganic & Med. Chem. Lett., 13, 1313-1316; Zhang et al., (2002b). Potent nonsteroidal progesterone receptor agonists: synthesis and SAR study of 6-aryl benzoxazines. Bioorganic & Med. Chem. Lett., 12, 787-790; Zhang, et al., (2000). In vitro characterization of trimegestone: a new potent and selective progestin. Steroids 65, 637-643}. […] In the absence of progesterone any agonist activity is also observed as an induction of AP activity. By running the assay in two formats (±progesterone (P4)), compounds behaving as PR antagonists, agonists or partials can be identified.
The materials required to grow T47D cells and perform the progesterone-induced AP assay are outlined in Table 1.
Assay media (agonist format): DMEM without phenol red+5% CS-FCS+2 mM Glutamax. Assay media (antagonist format): DMEM without phenol red+5% CS-FCS+2 mM Glutamax+10 nM P4.
Briefly, T47D cells are grown by propagating in DMEM+10% FBS+2 mM Glutamax at 37° C./5% CO2. At 80-90% confluence, the media is exchanged for phenol red free DMEM+5% CS-FCS (Assay media) and cultured for a further 24 hrs at 37° C./5% CO2. T47D cells are then plated at 2.5×10^4 cells/well in 100 μL assay media in sufficient 96 well plates for the assay, in triplicates of each condition. For example, for a 5-point IC50 curve on one compound, this is equivalent to […]. These plates are then cultured for 24 hrs at 37° C./5% CO2, leaving the outside wells blank by the addition of 200 μL PBS.
A 10 mM stock solution of compounds is prepared in DMSO (stored −20° C. in 10 μL aliquots). A 10 mM DMSO stock of RU486 is used as a standard pure PR antagonist. The compounds under investigation are added to assay medium, or a mixture of 0.05% pluronic acid in PBS, ±10 nM P4 to give a final concentration of 20 μM (i.e. 10 μL of the 10 mM stock to […] assay medium ±10 nM P4). The samples are mixed thoroughly and serial dilutions of compounds from 10 µM to 0.1 nM in a 96 well plate, are prepared as follows:
The outside wells are left blank. Assay medium (225 μL) is added to one half of the plate (−P4), rows 3-8, and to the other half of the plate, assay medium +10 nM P4. To row 2, 250 μL of the top concentration of compound (20 μM±10 nM P4) is added. 25 μL of the […] stock from row 2 is removed and added to the 225 μL of assay medium±10 nM P4 in row 3 and thoroughly mixed. This process is repeated down the plate to row 7 to achieve serial dilutions. The vehicle control is adjusted to contain 0.1% DMSO (i.e. 20 μL to 10 mL assay medium±10 nM P4 to give a concentration of 0.2% DMSO, add 250 μL to row 8).
100 μL of reagent from the dilution plates are transferred into the corresponding wells containing T47D cells assay medium, to give a final concentration of 10 μM to 0.1 nM compound (5 nM P4 antagonist format). The cells were incubated for 20 hrs at 37° C./5% CO2., then media is removed, cells washed with PBS (200 μL) and lysed by placing the cells at −80° C. for 15 min and thawing at room temp. The freeze-thaw lysis is repeated, then PBS (50 μL) is added to each well. […]

Our source for the IC50 and melting point values is US7309712B2, “1H-pyrazoles useful in therapy” (Pfizer Limited, priority 2005, dated 2007).

The term IC50 denotes the concentration needed to halve the response being measured. A higher IC50 goes with lower potency. As a reminder, the melting point is the temperature of the solid-liquid transition.

Consider `Cc1cc(Oc2c(C3CC3)nn(CS(C)(=O)=O)c2C)cc(C)c1C#N` [Example 19, 4-(3-cyclopropyl-1-methanesulfonylmethyl-5-methyl-1H-pyrazol-4-yloxy)-2,6-dimethyl-benzonitrile], for which half-maximal inhibition in series [1] (IC50) was put at 7 nM. In series [1], `CS(=O)(=O)Cn1nc(C2CC2)c(Oc2ccc(C#N)c(F)c2)c1C1CC1` [Example 5, 4-(3,5-dicyclopropyl-1-methanesulfonylmethyl-1H-pyrazol-4-yloxy)-2-fluoro-benzonitrile] displayed a concentration for half-maximal inhibition (IC50) of 44 nM. This IC50 is about 6.3-fold higher than that of the compound before.

Take `Cc1cc(Oc2c(C)nn(CS(C)(=O)=O)c2C2CC2)cc(C)c1C#N` [Example 20, 4-(5-cyclopropyl-1-methanesulfonylmethyl-3-methyl-1H-pyrazol-4-yloxy)-2,6-dimethyl-benzonitrile]: the 50% inhibitory concentration (IC50) in series [1] was 15 nM. This IC50 is about 2.9-fold lower than that of the compound before. On to `CS(=O)(=O)Cn1nc(C2CC2)c(Oc2ccc(C#N)cc2)c1C1CC1` [Example 1, 4-(3,5-Dicyclopropyl-1-methanesulfonylmethyl-1H-pyrazol-4-yloxy)-benzonitrile], for which the melting point lay in the range of 141.5 to 142.5 °C. For `Cc1cc(Oc2c(C3CC3)nn(CS(C)(=O)=O)c2C2CC2)cc(C)c1C#N` [Example 3, 4-(3,5-dicyclopropyl-1-methanesulfonylmethyl-1H-pyrazol-4-yloxy)-2,6-dimethyl-benzonitrile], the half-inhibitory concentration (IC50) in series [1] turned out to be 8 nM.

`Cc1cc(Oc2c(C3CC3)nn(CS(C)(=O)=O)c2C2CC2)ccc1C#N` [Example 2, 4-(3,5-dicyclopropyl-1-methanesulfonylmethyl-1H-pyrazol-4-yloxy)-2-methyl-benzonitrile] registered a melting point of 140.7 to 141.3 °C.

With `CCc1nn(CS(C)(=O)=O)c(CC)c1Oc1cc(C)c(C#N)c(C)c1` [Example 23, 4-(3,5-diethyl-1-methanesulfonylmethyl-1H-pyrazol-4-yloxy)-2,6-dimethyl-benzonitrile], it took 6 nM to reach half-maximal inhibition in series [1] (IC50). That is a single-digit nanomolar value. For the compound `Cc1cc(Oc2c(C3CC3)nn(CS(C)(=O)=O)c2C)ccc1C#N` [Example 17, 4-(3-cyclopropyl-1-methanesulfonylmethyl-5-methyl-1H-pyrazol-4-yloxy)-2-methyl-benzonitrile], inhibition in series [1] was half-maximal at 22 nM (IC50).
